# Measured values reported in patent US7611721B1, “Adjuvant combination formulations” (priority 2000, dated 2009).
# “And” between values parts separate entries of the source, which are not always exact repeats. Identical values can stand only once.
# Experiments:
# T1SP10MN(A) (+Cys) = assay: Reciprocal anti-T1SP10MN(A) (+Cys) serum IgG and subclass endpoint titers, Balb/c mice; format: in vivo; conditions: n=3 Balb/c
# From the text: The protocols of Experiment 2 were followed, except that the HIV peptide contained a cysteine at amino acid position 17, and the mice (n=3 Balb/c) were immunized subcutaneously on days 0 and 21, and bled for serological evaluation on days −1 (the day before first immunization), 13, 20 and 28. […] The HIV peptide T1SP10MN(A) (+Cys) (26) contains a cysteine at amino acid position 17 and is 40 residues long. T1SP10MN(A) (+Cys) was purchased from Genosys Biotechnologies (The Woodlands, Tex.).
# Reciprocal anti-T1SP10MN(A) IgG endpoint titers were measured from individual mice and their geometric means (n=3 Balb/c) 28 days after initial immunization.
# The protocols of Experiment 6 were followed, except that mice (n=3 Balb/c) were immunized subcutaneously on days 0 and 32, and bled for serological evaluation on day 38.
# Reciprocal anti-T1SP10MN(A) (+Cys) IgG endpoint titers were measured from individual mice and their geometric means (n=3 Balb/c) 38 days after initial immunization.
# [1] = system: P815 cells pulsed with HIVMN CTL epitope peptide; assay: CTL analysis of spleen cells (chromium release); format: cell-based; conditions: separate experiments; Balb/c mice immunized with peptide
# Experimental: FIG. 5 depicts the CTL activity of spleen cells isolated from mice seven days after secondary immunization. Spleen cells were harvested from groups of three Balb/c mice immunized on days 0 and 21 with 50 μg T1SP10MN(A) […] formulated with 50 μg MPL™ in 1% SE with or without 10 μg GM-CSF. Cells were cultured with the HIVMN CTL epitope peptide for seven days. IL-2 was added to the cultures for the last five days. Effector spleen cells were added to chromium-labelled P815 cells pulsed with HIVMN, another strain designated HIVIIIB or no peptide at the indicated ratios. Percent CTL activity was calculated as: […]
# The protocols of Experiment 6 were followed regarding immunization of mice. The CTL activity of spleen cells isolated from mice seven days after secondary immunization was assessed. MPL™ SE was formulated with 50 μg MPL™ in 1% SE, with or without 10 μg GM-CSF, plus 50 μg T1SP10MN(A) (+Cys).
# For CTL analysis, spleen cells were removed from immunized mice 14 days after primary, and seven days after secondary immunization. A protocol previously described (34) was essentially followed. […] Percent CTL activity was calculated as the percentage of chromium release using ((specific chromium release−spontaneous chromium release)/(maximal chromium release−spontaneous chromium release))×100. Chromium release was assessed after a six hour incubation period. […]
# [2] = Experiment 6, immunized days 0 and 21, day 28
# [3] = Experiment 7, immunized days 0 and 32, day 38
substance,measurement,setting,value
3-O-deacylated monophosphoryl lipid A [MPL ™],Anti-HIV Peptide (+Cys) IgG1 GMT,T1SP10MN(A) (+Cys); [2],"84,978"
same,"Anti-HIV Peptide (+Cys) IgG1 endpoint titer, individual mice",T1SP10MN(A) (+Cys); [2],"23,249 and 155,199 and 170,071"
same,Anti-HIV Peptide (+Cys) IgG2a GMT,T1SP10MN(A) (+Cys); [2],"2,859"
same,"Anti-HIV Peptide (+Cys) IgG2a endpoint titer, individual mice",T1SP10MN(A) (+Cys); [2],"500 and 1,628 and 28,722"
same,Anti-HIV Peptide (+Cys) IgG2b GMT,T1SP10MN(A) (+Cys); [2],"2,906"
same,"Anti-HIV Peptide (+Cys) IgG2b endpoint titer, individual mice",T1SP10MN(A) (+Cys); [2],"500 and 1,102 and 44,531"
same,Anti-HIV Peptide (+Cys) IgG GMT,T1SP10MN(A) (+Cys); [2],"350,486"
same,"Anti-HIV Peptide (+Cys) IgG endpoint titer, individual mice",T1SP10MN(A) (+Cys); [2],"91,728 and 529,663 and 886,156"
same,Anti-HIV Peptide (+Cys) IgG1 GMT,T1SP10MN(A) (+Cys); [3],"115,544"
same,"Anti-HIV Peptide (+Cys) IgG1 endpoint titer, individual mice",T1SP10MN(A) (+Cys); [3],"148,818 and 90,380 and 114,686"
same,Anti-HIV Peptide (+Cys) IgG2a GMT,T1SP10MN(A) (+Cys); [3],"3,429"
same,"Anti-HIV Peptide (+Cys) IgG2a endpoint titer, individual mice",T1SP10MN(A) (+Cys); [3],"11,874 and 1,674 and 2,028"
same,Anti-HIV Peptide (+Cys) IgG2b GMT,T1SP10MN(A) (+Cys); [3],"4,980"
same,"Anti-HIV Peptide (+Cys) IgG2b endpoint titer, individual mice",T1SP10MN(A) (+Cys); [3],"9,685 and 3,605 and 3,538"
same,Anti-HIV Peptide (+Cys) IgG GMT,T1SP10MN(A) (+Cys); [3],"442,259"
same,"Anti-HIV Peptide (+Cys) IgG endpoint titer, individual mice",T1SP10MN(A) (+Cys); [3],"404,755 and 446,952 and 478,163"
same,Peptide-specific CTL responses,[1],< 30%
